Test system: CYP2E1
Settings: tissue equivalent strips (hepatocytes + Langerhan's islet cells on matrix) in William's medium E, 37° C.; benzene 0.005, 0.01, 0.02, 0.05 and 0.1 mM, several hours; compared with basic activity before addition
Method: The strips are placed in approximately 1 liter of William's medium E, which is agitated. Adequate gas exchange is ensured, and the temperature of the medium is maintained at 37° C.
After the system has equilibrated, a first strip of tissue equivalent is removed and the CYP2E1 activity thereon is determined via the EFCOD test method. Using the said method, the CYP2E1mediated O-dealkylation of 7-ethoxy-4-trifluoromethylcoumarin to 7-hydroxy-4-trifluoromethylcoumarin is determined.
The benzene is allowed to act for several hours, while maintaining the medium in agitation and ensuring the gas exchange. Then the CYP2E1 activity is determined once again in the way described in the foregoing.

Question: `c1ccccc1` [benzene] was tested. Which “CYP2E1 activity (O-dealkylation of 7-ethoxy-4-trifluoromethylcoumarin to 7-hydroxy-4-trifluoromethylcoumarin)” value did it give?
Answer: distinct increase of the basic activity with increasing benzene concentration

From patent US7935507B2, “Method for testing substances on biomatrices” (Humanautocell GmbH, priority 2004, dated 2011)
